# Test results from the supplement of paper PMC10307832.
# Tests used:
# Experiment in all cases: relative viability (nuclei count vs DMSO), 5 days (fraction); higher = more cells survive
# [1] = system: COR-L 105
# In short: (§1)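 Relative viability divides the nuclei count in treated wells by that in vehicle wells. Lung cancer cell lines were seeded in 1536-well plates, dosed by pin tool the next day, and fixed and stained after 5 days in one step with final 0.05% Triton X-100, 1% formaldehyde and 1 ug/ml Hoechst. Dosing was a single drug or a fixed anchor-drug dose plus five library-drug doses (not always all listed) in √10 steps, and values are medians of duplicate plates imaged at 4×.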
# [2] = system: COR-L23
# In short: as §1
# [3] = system: HARA
# In short: as §1
# [4] = system: HCC-15
# In short: as §1
# [5] = system: HOP-62
# In short: as §1
# [6] = system: NCI-H1355
# In short: as §1
# [7] = system: NCI-H1395
# In short: as §1
# [8] = system: NCI-H1734
# In short: as §1
# [9] = system: NCI-H1755
# In short: as §1
# [10] = system: NCI-H1792
# In short: as §1
# [11] = system: NCI-H1793
# In short: as §1
# [12] = system: NCI-H1993
# In short: as §1
# [13] = system: NCI-H2009
# In short: as §1
# [14] = system: NCI-H2170
# In short: as §1
# [15] = system: NCI-H2228
# In short: as §1
# [16] = system: NCI-H2347
# In short: as §1
# [17] = system: NCI-H647
# In short: as §1
# [18] = system: NCI-H838
# In short: as §1
# [19] = system: SK-MES-1
# In short: as §1
# [20] = system: UMC-11
# In short: as §1
compound,measurement,setting,value
CC(=O)O[C@@]12CO[C@@H]1C[C@H](O)[C@@]1(C)C(=O)[C@H](O)C3=C(C)[C@@H](OC(=O)[C@H](O)[C@@H](NC(=O)OC(C)(C)C)c4ccccc4)C[C@@](O)([C@@H](OC(=O)c4ccccc4)[C@H]21)C3(C)C [Docetaxel] + CC1(C)CCC(c2ccc(Cl)cc2)=C(CN2CCN(c3ccc(C(=O)NS(=O)(=O)c4ccc(N[C@H](CCN5CCOCC5)CSc5ccccc5)c(S(=O)(=O)C(F)(F)F)c4)cc3)CC2)C1 [Navitoclax] (partner 0.5 µM),relative viability,[1]; first compound 0.0002 µM,0.94
same,relative viability,[1]; first compound 0.000632 µM,0.715
same,relative viability,[1]; first compound 0.002 µM,0.343
same,relative viability,[1]; first compound 0.006325 µM,0.367
same,relative viability,[1]; first compound 0.02 µM,0.26
same,relative viability,[2]; first compound 0.0002 µM,0.899
same,relative viability,[2]; first compound 0.000632 µM,0.939
same,relative viability,[2]; first compound 0.002 µM,0.373
same,relative viability,[2]; first compound 0.006325 µM,0.0756
same,relative viability,[2]; first compound 0.02 µM,0.0656
same,relative viability,[3]; first compound 0.0002 µM,1.08
same,relative viability,[3]; first compound 0.000632 µM,0.912
same,relative viability,[3]; first compound 0.002 µM,0.156
same,relative viability,[3]; first compound 0.006325 µM,0.107
same,relative viability,[3]; first compound 0.02 µM,0.0621
same,relative viability,[4]; first compound 0.0002 µM,0.636
same,relative viability,[4]; first compound 0.000632 µM,0.372
same,relative viability,[4]; first compound 0.002 µM,0.221
same,relative viability,[4]; first compound 0.006325 µM,0.161
same,relative viability,[4]; first compound 0.02 µM,0.0988
same,relative viability,[5]; first compound 0.0002 µM,0.878
same,relative viability,[5]; first compound 0.000632 µM,0.552
same,relative viability,[5]; first compound 0.002 µM,0.312
same,relative viability,[5]; first compound 0.02 µM,0.0795
same,relative viability,[6]; first compound 0.0002 µM,0.901
same,relative viability,[6]; first compound 0.000632 µM,0.77
same,relative viability,[6]; first compound 0.002 µM,0.372
same,relative viability,[6]; first compound 0.006325 µM,0.272
same,relative viability,[6]; first compound 0.02 µM,0.175
same,relative viability,[7]; first compound 0.0002 µM,1.15
same,relative viability,[7]; first compound 0.000632 µM,1.1
same,relative viability,[7]; first compound 0.002 µM,0.895
same,relative viability,[7]; first compound 0.006325 µM,0.394
same,relative viability,[7]; first compound 0.02 µM,0.357
same,relative viability,[8]; first compound 0.0002 µM,0.697
same,relative viability,[8]; first compound 0.000632 µM,0.819
same,relative viability,[8]; first compound 0.002 µM,0.323
same,relative viability,[8]; first compound 0.02 µM,0.104
same,relative viability,[9]; first compound 0.0002 µM,0.982
same,relative viability,[9]; first compound 0.000632 µM,0.98
same,relative viability,[9]; first compound 0.002 µM,0.401
same,relative viability,[9]; first compound 0.006325 µM,0.232
same,relative viability,[9]; first compound 0.02 µM,0.136
same,relative viability,[10]; first compound 0.0002 µM,0.441
same,relative viability,[10]; first compound 0.000632 µM,0.614
same,relative viability,[10]; first compound 0.002 µM,0.437
same,relative viability,[10]; first compound 0.02 µM,0.0744
same,relative viability,[11]; first compound 0.0002 µM,0.337
same,relative viability,[11]; first compound 0.000632 µM,0.432
same,relative viability,[11]; first compound 0.002 µM,0.292
same,relative viability,[11]; first compound 0.006325 µM,0.228
same,relative viability,[11]; first compound 0.02 µM,0.131
same,relative viability,[12]; first compound 0.0002 µM,0.945
same,relative viability,[12]; first compound 0.000632 µM,0.873
same,relative viability,[12]; first compound 0.002 µM,0.703
same,relative viability,[12]; first compound 0.006325 µM,0.554
same,relative viability,[12]; first compound 0.02 µM,0.436
same,relative viability,[13]; first compound 0.0002 µM,1.15
same,relative viability,[13]; first compound 0.000632 µM,1.19
same,relative viability,[13]; first compound 0.002 µM,0.892
same,relative viability,[13]; first compound 0.006325 µM,0.575
same,relative viability,[13]; first compound 0.02 µM,0.117
same,relative viability,[14]; first compound 0.0002 µM,0.569
same,relative viability,[14]; first compound 0.000632 µM,0.49
same,relative viability,[14]; first compound 0.002 µM,0.237
same,relative viability,[14]; first compound 0.006325 µM,0.213
same,relative viability,[14]; first compound 0.02 µM,0.15
same,relative viability,[15]; first compound 0.0002 µM,0.854
same,relative viability,[15]; first compound 0.000632 µM,0.35
same,relative viability,[15]; first compound 0.002 µM,0.156
same,relative viability,[15]; first compound 0.006325 µM,0.114
same,relative viability,[15]; first compound 0.02 µM,0.056
same,relative viability,[16]; first compound 0.0002 µM,0.844
same,relative viability,[16]; first compound 0.000632 µM,0.653
same,relative viability,[16]; first compound 0.002 µM,0.408
same,relative viability,[16]; first compound 0.006325 µM,0.359
same,relative viability,[16]; first compound 0.02 µM,0.258
same,relative viability,[17]; first compound 0.0002 µM,1.21
same,relative viability,[17]; first compound 0.000632 µM,0.597
same,relative viability,[17]; first compound 0.002 µM,0.245
same,relative viability,[17]; first compound 0.006325 µM,0.125
same,relative viability,[17]; first compound 0.02 µM,0.0526
same,relative viability,[18]; first compound 0.0002 µM,1.15
same,relative viability,[18]; first compound 0.000632 µM,1.22
same,relative viability,[18]; first compound 0.002 µM,0.29
same,relative viability,[18]; first compound 0.006325 µM,0.176
same,relative viability,[18]; first compound 0.02 µM,0.135
same,relative viability,[19]; first compound 0.0002 µM,1.19
same,relative viability,[19]; first compound 0.000632 µM,0.692
same,relative viability,[19]; first compound 0.002 µM,0.251
same,relative viability,[19]; first compound 0.006325 µM,0.122
same,relative viability,[19]; first compound 0.02 µM,0.108
same,relative viability,[20]; first compound 0.0002 µM,0.314
same,relative viability,[20]; first compound 0.000632 µM,0.271
same,relative viability,[20]; first compound 0.002 µM,0.155
same,relative viability,[20]; first compound 0.006325 µM,0.131
same,relative viability,[20]; first compound 0.02 µM,0.105
